These results are taken from PubChem BioAssay (NCI).

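All cell lines were grown in 96-well plates and treated with compound for 48 hours. GI50 = concentration required for 50% inhibition of growth. At the TGI there is no net growth.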

Holding throughout (assay): inhibition of tumour cell growth, NCI panel, 48 h
For assay [1], the system named is SW-620 colon.
Assay [2] concerns SNB-19 CNS.
Assay [3] relates to HOP-62 NSCLC.
Assay [4] concerns NCI-H460 lung.
The subject of assay [5] is K-562 leukemia.
Assay [6] deals with EKVX NSCLC.
Assay [7] relates to HCT-15 colon.
For assay [8], the system named is SK-MEL-2 melanoma.
In assay [9] the test system is SK-MEL-28 melanoma.

Take `C=CC1(C(=O)O)CCC(C(C)(C)C)CC1` (stereo unspecified): the TGI in assay [1], in assay [2], in assay [3], in assay [4], in assay [5] and in assay [6] was > 100 µM each time. For the same compound, the TGI in [7] and in [8] was > 100 µM throughout.
`O=C1c2ccccc2-c2cccc3ccc(Cc4ccc5ccccc5c4)c1c23`: the TGI in assay [1], in assay [2], in assay [3], in assay [4], in assay [5] and in assay [6] was > 100 µM in each case. The TGI in assay [7], in [8] and in assay [9] was > 100 µM throughout.
As for `CC[C@@H]1OC2(C)CC(S(=O)(=O)c3ccccc3O)CC1O2` (stereo partly specified), the TGI in assay [1], in assay [2], in assay [3], in assay [4], in [5] and in [6] was > 100 µM throughout. The TGI in assay [7], in assay [8] and in assay [9] was > 100 µM each time.
With `CCOC(=O)C(N)C[S][Sn]([CH3])([CH3])[Cl]` (stereo unspecified), the GI50 in assay [1] was > 100 µM; in assay [2], > 100 µM; in assay [3], > 100 µM; in assay [4], > 100 µM; in assay [5], 39.6 µM; in [6] it was > 100 µM. The GI50 in assay [7] is > 79.1 µM; in assay [8] it was > 100 µM; in assay [9], > 100 µM. In addition, the TGI in [1], in assay [2], in assay [3], in assay [4], in assay [5] and in [6] was > 100 µM each time. The TGI in assay [7], in assay [8] and in assay [9] was > 100 µM throughout.
Regarding `CC(=O)c1cccc(N2COC(C)(C)c3nc4ccccc4n3C2)c1`, the TGI in [1], in [2], in [3], in assay [4], in assay [5] and in assay [6] was > 100 µM in each case. Further, the TGI in [7], in assay [8] and in assay [9] was > 100 µM each time.
On to `CN[C@@H](C)C(=O)N[C@H](C(=O)N1CCC[C@H]1C(=O)N[C@H]1c2ccccc2C[C@H]1OCC#CC#CCO[C@@H]1Cc2ccccc2[C@@H]1NC(=O)[C@@H]1CCCN1C(=O)[C@@H](NC(=O)[C@H](C)NC)C1CCCCC1)C1CCCCC1`, for which the GI50 is 3.6 µM in [1]; 3.24 µM in assay [2]; 0.422 µM in assay [3]; 2.66 µM in [4]; 2 µM in assay [5]; 6.86 µM in assay [6]. The values for the GI50 in [7], in [8] and in [9] were 17.5 µM, 1.18 µM and 1.8 µM, respectively. The TGI in [1] came out at 11.5 µM; in assay [2], 8.87 µM; in assay [3], 16 µM; in [4], 6.77 µM; in [5], 4.66 µM; in [6] it was 20.6 µM. For the same compound, the figures for the TGI in assay [7], in [8] and in assay [9] were 40 µM, 3.02 µM and 3.55 µM, respectively.
In the case of `CC1C[C@@]2(c3ccccc3)C(=O)CCC[C@H]2N1` (stereo partly specified), the TGI in [1], in assay [2], in assay [3], in [4], in assay [5] and in [6] was > 100 µM throughout. Besides, the TGI in assay [8] and in assay [9] was > 100 µM in each case.
As for `COc1ccc(-c2onc(-c3ccc([N+](=O)[O-])cc3)c2C2=NCCN2)cc1`, the TGI in assay [1], in assay [2], in assay [3], in [4], in assay [5] and in assay [6] was > 100 µM throughout. Moreover, the TGI in [7], in [8] and in [9] was > 100 µM throughout.
Consider `CC/C(C)=C1\CCC(CN2CCOCC2)C1=O` (stereo unspecified), for which the TGI in assay [1] was 34.5 µM; in assay [2] it was > 100 µM; in assay [3], 40.2 µM; in assay [4] it was 32.4 µM; in assay [5] it was > 100 µM; in assay [6] it was 34 µM. Besides, the TGI in assay [7] amounted to 26.5 µM; in assay [8], 32 µM; in assay [9], 32 µM.
Take `COc1ccccc1N1C(=O)/C(=C/c2ccc(N(CCC#N)CCC#N)cc2C)N=C1c1cc([N+](=O)[O-])ccc1Cl`: the TGI in assay [2], in assay [3], in assay [4], in assay [5], in assay [6] and in assay [7] was > 100 µM each time. In addition, the TGI in assay [8] and in assay [9] was > 100 µM in each case.
In the case of `O=[N+]([O-])c1cccc(C2N3CCCCC3[C@@H]3c4[nH]c5ccccc5c4CCN23)c1` (stereo partly specified), the TGI in assay [1] is > 100 µM; in assay [2], 45.6 µM; in [3], 30.2 µM; in assay [4], 31.1 µM; in assay [5] it was 19.6 µM; in assay [6], 69.9 µM. The TGI in [7] turned out to be 23.3 µM; in assay [8], 22 µM; in [9] it was 29.8 µM.
As for `COc1cc(Cl)c2c3c(c(C(C)=O)oc13)CCC2`, the TGI in assay [1], in assay [2], in [3], in assay [4], in [5] and in assay [6] was > 100 µM in each case. Besides, the TGI in assay [7] and in [9] was > 100 µM each time.
As for `CC(=O)OCC1OC(N2C(=O)C(=O)c3cc(C)ccc32)C(OC(C)=O)C(OC(C)=O)C1OC(C)=O` (stereo unspecified), the TGI in [1], in assay [2], in assay [3], in assay [4], in assay [5] and in assay [6] was > 100 µM throughout. Further, the TGI was > 100 µM in [7], > 100 µM in assay [8] and 91.8 µM in assay [9].
As to `CC1=C(C(=O)Nc2ccccc2C)C(c2ccc(Cl)c(Cl)c2)C(C(=O)Nc2ccccc2C)=C(C)N1`, the TGI in assay [1] is > 100 µM; in assay [2] it was > 100 µM; in assay [3], 66.5 µM; in assay [4], 36.4 µM; in assay [5], 79.8 µM; in [6], > 100 µM. Further, the TGI in assay [7] was determined as 47.2 µM; in [8], 33.6 µM; in [9] it was 71.1 µM.
For the compound `Nc1c(C(=O)c2ccc(Cl)cc2)sc(Nc2ccccc2)c1-c1nc2ccccc2s1`, the GI50 was 1.2 µM in [1]; 4.56 µM in assay [2]; 3.71 µM in assay [3]; 0.776 µM in assay [4]; 3.1 µM in assay [5]; 2 µM in assay [6]. In addition, the GI50 was 2.44 µM in assay [7], 3.89 µM in [8] and 4.31 µM in assay [9]. Further, the TGI is > 100 µM in [1]; > 100 µM in assay [2]; 65.8 µM in assay [3]; > 100 µM in [4]; > 100 µM in assay [5]; > 100 µM in assay [6]. Also, the TGI in assay [7] was > 100 µM; in assay [8], 21 µM; in [9], > 100 µM.
With `c1ccc2c(c1)CCC/C2=N\OCC1CO1` (stereo unspecified), the TGI in [1], in assay [2], in [3], in [4], in assay [5] and in [6] was > 100 µM throughout. For the same compound, the TGI in [7] and in [8] was > 100 µM throughout.
For the compound `COc1cc(/C=C(\C#N)C(=O)c2ccccc2)ccc1OCc1ccccc1`, the TGI in [1], in assay [2], in [3], in [5], in assay [6] and in [7] was > 100 µM in each case. The TGI in [8] and in [9] was > 100 µM each time.
`NNC(=O)/C(=C/c1ccc(Cl)c(Cl)c1)NC(=O)c1ccccc1`: the TGI in [1], in assay [2], in assay [3], in assay [4], in [6] and in [8] was > 100 µM each time. The TGI in assay [9] was > 100 µM.
Regarding `Cc1[nH]c2ccccc2c1C1Cc2ccccc2N1C(=O)/C=C\C(=O)O` (stereo unspecified), the TGI in assay [1] is > 100 µM; in assay [2] it was 68.6 µM; in assay [3] it was > 100 µM; in [4], > 100 µM; in assay [5], > 100 µM; in [6] it was > 100 µM. Also, the values for the TGI in assay [7] and in assay [8] were > 100 µM and 39.6 µM, respectively.
In the case of `O=S(=O)(N/N=C/c1ccc(/C=N/NS(=O)(=O)c2ccccc2)cc1)c1ccccc1`, the TGI in assay [3] was > 100 µM; in assay [4], > 100 µM; in [5], 98.5 µM; in assay [6] it was > 100 µM; in [7], > 100 µM; in [8], > 100 µM. In addition, the TGI in [9] was > 100 µM.
